Laboratory results reported in US4288453A, “Derivatives of arylalkanoic acids, compositions and use” (Science Union et Cie, priority 1977, dated 1981).
Structures can show the parent of a compound that is named as a salt.

Columns and labels:
[1] = Solubility (qualitative); type: physicochemical; details: for solubility in sodium hydroxide / alkaline solutions: aqueous sodium hydroxide or alkaline solutions; for solubility in hydrochloric acid: (diluted) hydrochloric acid
[2] = pH of the aqueous solution; type: physicochemical; details: dissolved in the previously-calculated amount of sodium hydroxide
[3] = tested on: male mice (strain CD); test: Acute toxicity (LD50, Litchfield and Wilcoxon); type: in vivo; details: intraperitoneal, 8 days survey
Source text: The acute toxicity of these compounds has been determined on batches of male mice (strain CD) weighing about 20 g. They received the compounds to be tested at increasing doses either intraperitoneally or orally.
The animals are kept under survey for eight days. The deaths when present are numbered.
The average lethal dosage is graphically calculated according to the method of Litchfield and Wilcoxon.

Compound	solubility in sodium hydroxide / alkaline solutions [1]	also measured
CCC(OC(c1ccc(N2CCCCC2)cc1)C(F)(F)F)C(=O)O (racemic) [Example XIV hydrochloride, dl-2-[1-(4-piperidinophenyl)-2-trifluoroethoxy]butyric acid]		solubility in water [1]: freely soluble in water
CCC(OC(c1ccc(N2CCOCC2)cc1)C(F)(F)F)C(=O)O (racemic) [Example XV hydrochloride, dl-2-[1-(4-morpholinophenyl)-2-trifluoroethoxy]butyric acid]		solubility in water [1]: soluble in water
CC(OC(c1ccccc1)C(F)(F)F)C(=O)O (racemic) [IV, dl-α-(2,2,2-trifluoro-1-phenylethoxy)propionic acid]	dissolves in the stoichiometric amount of sodium hydroxide	
CCC(OC(c1ccc(Oc2ccc(Cl)cc2)cc1)C(F)(F)F)C(=O)O (racemic) [XII, dl-2-[1-(4-chlorophenoxyphenyl)-2,2,2-trifluoroethoxy]butyric acid]	soluble in dilute sodium hydroxide solutions	
O=C(O)C(OC(c1ccccc1)C(F)(F)F)c1ccccc1 (racemic) [XVII, dl-2-(1-phenyl-2-trifluoroethoxy)phenyl acetic acid]	soluble in the dilute solutions of sodium hydroxide	
CCC(OC(c1cccs1)C(F)(F)F)C(=O)O (racemic) [XVIII, dl-2-[1-(thienyl-2)-2,2,2-trifluoroethoxy]butyric acid]	soluble in dilute solutions of sodium hydroxide	
CCC(OC(c1cccc2ccccc12)C(F)(F)F)C(=O)O (racemic) [XXI, Dl-2-[(naphtyl-1)-2,2,2-trifluoroethoxy]butyric acid]	soluble in the previously-calculated amount of sodium hydroxide	pH value of the aqueous solution [2]: 7-8
CCC(OC(c1ccc2ccccc2c1)C(F)(F)F)C(=O)O (racemic) [XXII, dl-2-[1-(naphtyl-2)-2,2,2-trifluoroethoxy]butyric acid]	soluble in the previously-calculated amount of sodium hydroxide	
CCC(OC(c1ccc(N2CCCCCC2)cc1)C(F)(F)F)C(=O)O (racemic) [XXIV, dl-2-[[4-(1-hexamethyleneimino)phenyl]-2,2,2-trifluoroethoxy] butyric acid]	soluble in the dilute aqueous solutions of sodium hydroxide	solubility in hydrochloric acid [1]: insoluble in diluted hydrochloric acid
CCC(OC(c1ccc(N2CCCCCCC2)cc1)C(F)(F)F)C(=O)O (racemic) [XXV, dl-2-[[4-(heptamethyleneimino-1)phenyl-2,2,2-trifluoroethoxy)] butyric acid]	soluble in the aqueous solutions of sodium hydroxide	solubility in hydrochloric acid [1]: insoluble in hydrochloric acid
CCC(OC(c1ccc(Cl)cc1)C(F)(F)F)C(=O)O (single isomer, unassigned) [Example IX (acid, isomer β), α-[2,2,2-trifluoro-1-(p-chlorophenylethoxy]butyric acid (isomer β)]	soluble in the previously-calculated amount of sodium hydroxide	
CCC(OC(c1ccccc1)C(F)(F)F)C(=O)O (stereo not drawn) [Example II, α-(2,2,2-trifluoro-1-phenyl-1-ethoxy)butyric acid]	soluble in the previously-calculated amount of sodium hydroxide in aqueous solution	
CCC(OC(c1ccc(Cl)cc1)C(F)(F)F)C(=O)O (stereo not drawn) [Example V (1), α-[2,2,2-trifluoro-1-(4-chlorophenyl)ethoxy]butyric acid]	soluble in an aqueous solution of sodium hydroxide	
CCC(OC(c1ccc(OC)cc1)C(F)(F)F)C(=O)O (stereo not drawn) [Example V (4-methoxyphenyl), α-[2,2,2-trifluoro-1-(4-methoxyphenyl)ethoxy]butyric acid]	soluble in alkaline solutions	solubility in water [1]: insoluble in water
CCC(OC(c1ccccc1)C(F)(F)F)C(=O)NO (stereo not drawn) [Example VI, α-(2,2,2-trifluoro-1-phenylethoxy)butyryl hydroxamic acid]	soluble in the previously-calculated amount of sodium hydroxide	
CCC(OC(c1ccccc1)C(F)(F)F)C(=O)N1CCOCC1 (stereo not drawn) [Example VII, 4-[α-(2,2,2-trifluoro-1-phenylethoxy)butyryl]morpholine]		solubility in common organic solvents ([1]; common organic solvents): soluble in the common organic solvents; solubility in water [1]: insoluble in water
CCC(OC(c1ccccc1)C(F)(F)F)C(=O)N1CCCCC1 (stereo not drawn) [VIII, 1-[α-(2,2,2-trifluoro-1-phenylethoxy)butyryl]piperidine]		solubility in water [1]: insoluble in water
dl-2-[1-(p-chlorophenylethoxy)-2,2,2-trifluoroethoxy] butyric acid		mean lethal dose (LD50) [3]: about 400 mg/kg
